The values that follow come from US7863279B2, “Triazolopyridine carboxamide derivatives and triazolopyrimidine carboxamide derivatives, preparation thereof and therapeutic use thereof” (sanofi-aventis, priority 2007, dated 2011).

For data set [1], the target named is T1, MGL (monoacyl glycerol lipase) enzyme (Mus musculus, UniProt O35678).
T1 construct: the source of MGL enzyme is a homogenate of mouse brain from which the cerebellum and the medulla oblongata have been removed; from tissue; host or cells: mouse brain homogenate (cerebellum and medulla oblongata removed)
T1 sequence (O35678 1-303): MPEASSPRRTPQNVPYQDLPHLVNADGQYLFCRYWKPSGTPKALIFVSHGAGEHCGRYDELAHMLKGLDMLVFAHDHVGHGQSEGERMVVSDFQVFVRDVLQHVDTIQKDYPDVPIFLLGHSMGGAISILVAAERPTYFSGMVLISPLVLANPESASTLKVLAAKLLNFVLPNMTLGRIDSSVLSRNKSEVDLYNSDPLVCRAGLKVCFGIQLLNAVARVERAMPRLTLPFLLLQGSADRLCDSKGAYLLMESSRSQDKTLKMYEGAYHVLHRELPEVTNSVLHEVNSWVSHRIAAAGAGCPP
Briefly: Radioenzymatic assay of [3H] 2-oleoyl glycerol hydrolysis by MGL. It counts as biochemical. Conditions: mouse brain homogenate; 20 min preincubation; 50 μM 2-OG, 20 min at ambient temperature; read-out: IC50 (concentration inhibiting 50% of the control enzyme activity of MGL). As for the experimental part:
Tests comprised measuring the activity, in vitro, of the compounds of the invention on the MGL enzyme.
The inhibitory activity was measured in a radioenzymatic assay based on measuring the product of hydrolysis of 2-oleoyl glycerol ([^3H] 2-OG) by MGL. The products of hydrolysis of [^3H] 2-OG, labeled on the glycerol, are oleic acid and [^3H] glycerol, and the source of MGL enzyme is a homogenate of mouse brain from which the cerebellum and the medulla oblongata have been removed. The mouse brains are removed, and stored at −80° C. until they are used, or homogenized immediately for twice 5 seconds using a Precellys apparatus at 5000 rpm (Bertin) in a 10 mM Tris-HCl, 150 mM NaCl, 1 mM EDTA buffer (pH 8) at 4° C. The concentration of the homogenates is then adjusted to 7.5 μg/μl.
(§1) The dilution series of the compounds is prepared from stock solutions at 20 mM in 100% DMSO. […]
Assaying of the MGL activity is carried out in a 96-well microplate in a final reaction volume of 100 μl. […] After stirring for 10 minutes, the microplate is centrifuged for 15 minutes at 4000 g and a 30 μl aliquot of the aqueous phase containing the [^3H] glycerol produced is removed and then counted for 5 minutes by liquid scintillation (Wallac 1450 Microbeta). […]

Data set [2] has as its target T2, FAAH (Fatty Acid Amide Hydrolase) enzyme (Mus musculus, UniProt O08914).
T2 construct: the source of FAAH enzyme is a homogenate of mouse brain from which the cerebellum and the medulla oblongata have been removed; from tissue; host or cells: mouse brain homogenate (cerebellum and medulla oblongata removed)
T2 sequence (O08914 1-579): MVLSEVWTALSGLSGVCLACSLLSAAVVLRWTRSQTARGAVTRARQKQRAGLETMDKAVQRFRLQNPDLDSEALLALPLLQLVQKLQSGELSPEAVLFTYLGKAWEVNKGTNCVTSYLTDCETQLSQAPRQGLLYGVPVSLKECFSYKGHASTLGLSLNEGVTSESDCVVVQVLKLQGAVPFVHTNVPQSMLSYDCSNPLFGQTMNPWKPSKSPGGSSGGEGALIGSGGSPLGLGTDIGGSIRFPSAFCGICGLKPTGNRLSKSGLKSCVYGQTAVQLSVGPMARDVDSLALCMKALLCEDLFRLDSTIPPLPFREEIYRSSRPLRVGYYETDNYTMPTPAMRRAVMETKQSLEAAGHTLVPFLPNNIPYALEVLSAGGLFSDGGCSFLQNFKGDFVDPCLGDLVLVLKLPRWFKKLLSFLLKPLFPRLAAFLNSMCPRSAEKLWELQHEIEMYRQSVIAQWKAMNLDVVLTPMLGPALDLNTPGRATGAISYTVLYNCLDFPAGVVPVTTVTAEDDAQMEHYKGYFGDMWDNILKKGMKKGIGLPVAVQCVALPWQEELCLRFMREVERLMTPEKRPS
Briefly: Radioenzymatic assay of [3H] anandamide hydrolysis by FAAH. Type of data set: biochemical. The conditions noted are these: mouse brain homogenate; 20 min preincubation; 10 μM anandamide, 20 min at ambient temperature; read-out: IC50 (concentration inhibiting 50% of the control enzyme activity of FAAH). As for the experimental part: Tests comprised measuring the activity, in vitro, of the compounds of the invention on the FAAH enzyme.
The inhibitory activity was measured in a radioenzymatic assay based on measuring the product of hydrolysis (ethanolamine [1-3H]) of anandamide by FAAH (Life Science (1995), 56, 1999-2005 and Journal of Pharmacology and Experimented Therapeutics (1997), 283, 729-734). The products of hydrolysis of [^3H] anandamide, labeled on ethanolamine, are arachidonic acid and [^3H]ethanolamine, and the source of FAAH enzyme is a homogenate of mouse brain from which the cerebellum and the medulla oblongata have been removed. The mouse brains are removed, and stored at −80° C. until they are used, or homogenized immediately for twice 5 seconds using a Precellys apparatus at 5000 rpm (Bertin) in a 10 mM Tris-HCl, 150 mM NaCl, 1 mM EDTA buffer (pH 8) at 4° C. The concentration of the homogenates is then adjusted to 20 μg/μl.
as §1
Assaying of the FAAH activity is carried out in a 96-well microplate in a final reaction volume of 70 μl. […] After stirring for 10 minutes, the microplate is centrifuged for 15 minutes at 4000 g and a 30 μl aliquot of the aqueous phase containing the [^3H]ethanolamine produced is removed and then counted for 5 minutes by liquid scintillation (Wallac 1450 Microbeta).

As to `O=C(N1CCN(c2cccc(C(F)(F)F)c2)CC1)n1nnc2ccc(-c3ccc(Cl)cc3)nc21` [Compound No. 3, [5-(4-chlorophenyl)[1,2,3]triazolo[4,5-b]pyridin-3-yl][4-(3-trifluoromethylphenyl)piperazin-1-yl]methanone], the melting point fell in the range of 139 to 141 °C. Moreover, the IC50 in data set [1] stood at 2 nM. For the same compound, the IC50 in data set [2] was found to be 2 nM. Compound `O=C(N1CCN(c2cccc(C(F)(F)F)c2)CC1)n1nnc2ccc(-c3ccccc3Cl)nc21` [compound 1, [5-(2-chlorophenyl)[1,2,3]triazolo[4,5-b]pyridin-3-yl][4-(3-trifluoromethylphenyl)piperazin-1-yl]methanone] displayed a melting point of 69 to 71 °C. Same read-out and setting: as for `O=C(N1CCN(c2cccc(C(F)(F)F)c2)CC1)n1nnc2ccc(-c3cccc(Cl)c3)nc21` [compound 2, [5-(3-chlorophenyl)[1,2,3]triazolo[4,5-b]pyridin-3-yl][4-(3-trifluoromethylphenyl)piperazin-1-yl]methanone], the figure is 102 to 104 °C; as for `O=C(N1CCN(c2cccc(C(F)(F)F)c2)CC1)n1nnc2ccc(-c3ccoc3)nc21` [compound 4, (5-furan-3-yl[1,2,3]triazolo[4,5-b]pyridin-3-yl)[4-(3-trifluoromethylphenyl)piperazin-1-yl]methanone], 68 to 70 °C. The same measure, in the same setting: as for `O=C(N1CCN(c2cccc(C(F)(F)F)c2)CC1)n1nnc2ccc(-c3ccsc3)nc21` [compound 5, (5-thiophen-3-yl[1,2,3]triazolo[4,5-b]pyridin-3-yl)[4-(3-trifluoromethylphenyl)piperazin-1-yl]methanone], the figure is 93 to 95 °C.

In the case of `O=C(N1CCN(c2cccc(C(F)(F)F)c2)CC1)n1nnc2ccc(-c3ccc4ccccc4c3)nc21` [compound 6, (5-naphthalen-2-yl[1,2,3]triazolo[4,5-b]pyridin-3-yl)[4-(3-trifluoromethylphenyl)piperazin-1-yl]methanone], the melting point lay in the range of 90 to 92 °C.
